Molecules are shown by their SMILES. A value given as a limit tells only on which side of the number the result lay.

Series [1] relates to vascular endothelial cells (HUVECs). Description: CCK-8 cell viability assay on vascular endothelial cells. As to conditions: 24 h and 48 h. It counts as cell-based. Here is the method: The range of drug concentrations at which ATO and TAC were friendly to vascular endothelial cell viability was determined at the cellular level.
The changes in the cell viability of vascular endothelial cells (HUVECs) under the action of ATO, TAC and rapamycin (RAP) at different concentrations for 24 h and 48 h were studied by CCK-8 cell viability assay, respectively.

Series [2] relates to vascular smooth muscle cells (HASMCs). Description: CCK-8 cell viability assay on vascular smooth muscle cells. It counts as cell-based. The note with it: different concentrations, 24 h and 48 h. Here is the method:
The range of drug concentrations at which ATO and TAC were friendly to vascular smooth muscle cell viability was determined at the cellular level.
The changes in the cell viability of vascular smooth muscle cells (HASMCs) under the action of ATO, TAC and rapamycin (RAP) at different concentrations for 24 h and 48 h were studied by CCK-8 cell viability assay, respectively.
(In general: Tetrazolium dyes change colour on reduction, which living cells bring about.)

For series [3], the system named is IL-6, IL-10 and TNF-α gene expression in HUVECs. Description: PCR of inflammatory factor gene expression in LPS-induced HUVECs. Type of series: cell-based. As to conditions: 10 nM; HUVECs induced with LPS 1 μg/ml for 6 h. Here is the method: The range of effective concentrations at which TAC inhibited the inflammatory response of vascular endothelial cells was verified at the cellular level.
After induction of HUVECs with LPS at a concentration of 1 μg/ml for 6 h, the inhibitory effects of TAC at different concentrations on the inflammatory response of HUVECs were detected by PCR.

Series [4] in a line: Drug release from coated stents soaked in PBS solution in a shaker. As to conditions: at 1 d; release curve obtained by adjustment. Type of series: physicochemical. The text has this: The process of testing the release properties of tacrolimus of the present invention comprises: soaking drug stents in a PBS solution, placing the stents in a shaker (shaking speed of 80 r/min), and taking out the stents at the corresponding time points (1 d, 7 d, 14 d, 21 d, and 28 d) (at least 3 stents for each time point), and testing the concentration of tacrolimus. The content of tacrolimus can be tested using the detection method in “Determination of Tacrolimus Tablets by HPLC” (Lv, Yongchao, Song, Yucai; Journal of Pharmaceutical Research 2013 Vol. 32, No. 4, page 1).
For the drug release properties of the present invention, the release process comprises: soaking drug stents in a PBS solution, placing the stents in a shaker (shaking speed of 100 r/min), and taking out 5 ml of the solution at the corresponding time points (1 d, 7 d, 14 d, 21 d, and 28 d) (at least 3 stents for each time point) for testing. The release of the drug arsenic trioxide is detected using the method disclosed in “Preparation and the Release Characteristic in vitro of Arsenic Trioxide Albumin Nanospheres” (Zhou, Jie, Zeng, Fuqing, Gao, Xiang, Xie, Shusheng, Wei, Shuli, Chinese Journal of New Drugs, pages 54-57).

Take `CO[C@H]1C[C@@H]2CC[C@@H](C)[C@@](O)(O2)C(=O)C(=O)N2CCCC[C@H]2C(=O)O[C@H]([C@H](C)C[C@@H]2CC[C@@H](O)[C@H](OC)C2)CC(=O)[C@H](C)/C=C(\C)[C@@H](O)[C@@H](OC)C(=O)[C@H](C)C[C@H](C)/C=C/C=C/C=C/1C` [RAP, rapamycin]: the “concentration with no significant effect on cell viability” value in series [1] is on record as at most 100 nM.
As for `C=CC[C@@H]1/C=C(\C)C[C@H](C)C[C@H](OC)[C@H]2O[C@@](O)(C(=O)C(=O)N3CCCC[C@H]3C(=O)O[C@H](/C(C)=C/[C@@H]3CC[C@@H](O)[C@H](OC)C3)[C@H](C)[C@@H](O)CC1=O)[C@H](C)C[C@@H]2OC` [TAC, tacrolimus], the “effect on the viability of vascular smooth muscle cells” value in series [2] is recorded as “no significant inhibitory effect”. In addition, the “gene expression levels of cellular inflammatory factors IL-6, IL-10 and TNF-α” value in series [3] is “effectively reduce”. Moreover, the tacrolimus released in series [4] is listed as at least 40%. The “concentration with no significant effect on cell viability” value in series [1] was at most 50 nM.

Source of the values: US20250152387A1, “COBALT-CHROMIUM ALLOY STENT AND DRUG ELUTING STENT” (AmsinoMed Medical Co., Ltd, priority 2022, published 2025).
